What was measured:
[1] = system: Sorbitol accumulation in lens; test: Inhibitory action on sorbitol accumulation in tissues of rats with experimental (streptozotocin) diabetes: lens; format: in vivo, Sprague-Dawley rats; conditions: % of control (control = 100%), measured 3 hours after final administration
Experimental: (§1) 2) Inhibitory action on sorbitol accumulation in tissues of rats with experimental diabetes
(§2) Test Drugs: Compound of the invention and EPALRESTAT (described in Japanese Patent Unexamined Publication No. 40478/1982)
(§3) Sprague-Dawley rats (male, 6 weeks old, 5-6 per group) were fasted for 18 hours and injected with streptozotocin (SIGMA, 60 mg/kg) via the tail vein under etherization to prepare rats with diabetes.
(§4) The various compounds were orally administered at 4, 8 and 24 hours after the injection of streptozotocin, at 10 mg/kg or 30 mg/kg as a 0.5% carboxymethylcellulose suspension. During the administrations, the rats were raised under free access to feed and water and the sorbitol content in the tissues (erythrocytes, sciatic nerve, lens) was determined 3 hours after the final administration, according to the enzyme method of H. Y. Bergmeyer et al. [Methods of Enzymatic Analysis, vol. 3, 1323-1330 (1974)]with the use of SDH (sorbitol dehydrogenase) and NAD (β-nicotinamide adenine dinucleotide). The results are expressed in percent (%) relative to the value of a control group administered with 0.5% carboxymethylcellulose solution (solvent) instead of the compound, which was taken as 100%.

[2] = system: Sorbitol accumulation in sciatic nerve; test: Inhibitory action on sorbitol accumulation in tissues of rats with experimental (streptozotocin) diabetes: sciatic nerve; format: in vivo, Sprague-Dawley rats; conditions: % of control (control = 100%), measured 3 hours after final administration
Experimental: as §1, §2, §3, §4

[3] = system: Sorbitol accumulation in erythrocytes; test: Inhibitory action on sorbitol accumulation in tissues of rats with experimental (streptozotocin) diabetes: erythrocytes; format: in vivo, Sprague-Dawley rats; conditions: % of control (control = 100%), measured 3 hours after final administration
Experimental: as §1, §2, §3, §4

[4] = system: ICR mice; conditions: mouse, in vivo
Experimental: The acute toxicity (safety) of the compound of the present invention was confirmed by the following method.
Normal ICR mice (male, 7 weeks old, 5 per group) were fasted for 18 hours and the compound (300 mg/kg) of Example 37 was orally administered as a 0.5% carboxymethylcellulose suspension. To the control group, a 0.5% carboxymethylcellulos e solution alone was orally administered and observation was continued for 14 days thereafter, during which period the mice were allowed to take feed and water freely.

[5] = target: T1, aldose reductase (Sus scrofa, UniProt P80276); test: Aldose reductase inhibitory action (swine lens enzyme, dl-glyceraldehyde substrate, NADPH, absorbance change at 340 nm); format: biochemical; conditions: 3 mM dl-glyceraldehyde, 0.1 mM NADPH, pH 6.2, 25° C., 2 minutes, read-out: IC50 (concentration inhibiting the aldose reductase activity by 50%)
T1 construct: swine lenses freeze-stored at -80° C. were homogenized with distilled water; from tissue; host or cells: swine lens
Experimental: That is, swine lenses freeze-stored at -80° C. were homogenized with distilled water and cetrifuged at 10,000 G for 15 minutes. The supernatant was prepared into a 40% ammonium sulfate solution and subjected to cetrifugation at 10,000 G for 10 minutes.
The activity of aldose reductase was determined by the above-mentioned method of S. Hayman et al. That is, the above-mentioned enzyme solution (25 μl) and a drug solution (25 μl) dissolved in 1% DMSO at various concentrations were added to a 40 mM phosphate buffer (200 μl, pH 6.2) containing final concentrations of 0.4 M lithium sulfate, 0.1 mM NADPH (reduced type nicotinamide adenine dinucleotide phosphate) and 3 mM dl-glyceraldehyde as a substrate.
The test drug number indicates the example number to be mentioned later.

[6] = 10 mg/kg oral at 4, 8 and 24 hours after streptozotocin, * p<0.05, ** p<0.01 (Tukey)
[7] = 10 mg/kg oral at 4, 8 and 24 hours after streptozotocin, ** p<0.01 (Tukey)
[8] = 30 mg/kg oral at 4, 8 and 24 hours after streptozotocin

SMILES | Sorbitol accumulation, lens [1, 6] [%] | Sorbitol accumulation, sciatic nerve [2, 7] [%] | Sorbitol accumulation, erythrocytes [3, 7] [%] | death among the mice [4] | Sorbitol accumulation, lens [1, 8] [%] | Sorbitol accumulation, sciatic nerve [2, 8] [%] | Sorbitol accumulation, erythrocytes [3, 8] [%] | IC50 [5] [nM]
O=C(O)CCC(=O)N(Cc1nc2c(F)c(F)cc(F)c2s1)c1ccc(Cl)cc1 [Example 37, N-(4-chlorophenyl)-N-[(4,5,7-trifluorobenzothiazol-2-yl)methyl]succinamic acid] | 55.4 | 17.8 | 16.4 | no case of death |  |  |  | 
COc1ccc(N(Cc2nc3c(F)c(F)cc(F)c3s2)C(=O)CCC(=O)O)cc1 [Example 55, N-[(4,5,7-trifluorobenzothiazol-2-yl)methyl]-N-(4-methoxyphenyl)succinamic acid] | 74.4 | 27.2 | 2.5 |  |  |  |  | 
CC(/C=C1\SC(=S)N(CC(=O)O)C1=O)=C\c1ccccc1 [EPALRESTAT, reference compound] |  |  |  |  | 89.1 | 99.9 | 66.5 | 
O=C(O)CCC(=O)N(Cc1nc2c(Cl)c(Cl)ccc2s1)c1ccc(Cl)cc1 [Example 39, N-(4-chlorophenyl)-N-[(4,5-dichlorobenzothiazol-2-yl)methyl]succinamic acid] |  |  |  |  |  |  |  | 13
Cc1ccc(N(Cc2nc3c(F)c(F)cc(F)c3s2)C(=O)CCC(=O)O)cc1 [Example 41, N-[(4,5,7-trifluorobenzothiazol-2-yl)methyl]-N-(4-methylphenyl)succinamic acid] |  |  |  |  |  |  |  | 13
CSc1ccccc1N(Cc1nc2c(F)c(F)cc(F)c2s1)C(=O)CCC(=O)O [Example 72, N-[(4,5,7-trifluorobenzothiazol-2-yl)methyl]-N-(2-methylthiophenyl)succinamic acid] | 50.0 | 10.8 | 19.2 |  |  |  |  | 13
O=C(O)CCC(=O)N(Cc1nc2c(F)c(F)cc(F)c2s1)c1ccccc1 [Example 65, N-[(4,5,7-trifluorobenzothiazol-2-yl)methyl]-N-phenylsuccinamic acid] | 71.8 | 4.0 | 6.4 |  |  |  |  | 15
O=C(O)CCC(=O)N(Cc1nc2c(F)c(F)cc(F)c2s1)c1ccccc1Cl [Example 48, N-(2-chlorophenyl)-N-[(4,5,7-trifluorobenzothiazol-2-yl)methyl]succinamic acid] | 56.6 | 45.7 | 32.8 |  |  |  |  | 
